For assay [1], the target named is T1, Sterol O-acyltransferase 2 (Rattus norvegicus, UniProt Q7TQM4).
T1 sequence (Q7TQM4 whole entry): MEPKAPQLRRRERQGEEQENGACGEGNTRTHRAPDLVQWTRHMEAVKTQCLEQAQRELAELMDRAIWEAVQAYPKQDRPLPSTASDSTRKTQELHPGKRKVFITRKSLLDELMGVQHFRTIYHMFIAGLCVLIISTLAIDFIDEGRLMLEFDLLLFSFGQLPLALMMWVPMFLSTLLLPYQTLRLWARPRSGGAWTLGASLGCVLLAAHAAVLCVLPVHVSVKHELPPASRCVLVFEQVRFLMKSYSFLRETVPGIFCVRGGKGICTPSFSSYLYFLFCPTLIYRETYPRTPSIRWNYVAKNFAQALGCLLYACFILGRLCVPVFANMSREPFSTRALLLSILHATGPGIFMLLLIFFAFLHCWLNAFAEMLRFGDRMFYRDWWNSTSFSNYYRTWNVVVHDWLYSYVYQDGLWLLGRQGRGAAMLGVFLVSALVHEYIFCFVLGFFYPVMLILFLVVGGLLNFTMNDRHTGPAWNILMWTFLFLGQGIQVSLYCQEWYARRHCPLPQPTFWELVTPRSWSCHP
Briefly: Inhibitory activity against acyl-CoA:cholesterol O-acyltransferase (ACAT).

For a further assay, the system named is Cricetinae gen. sp. The experiment in a line: Effective dose for inhibition of [3H]- cholesterol absorption in a hamster model. It counts as functional, Cricetulus griseus.

Where only a bound is given, the exact number is not on record here.

The compound `CC(=O)O[C@H]1CC[C@@]2(C)C(C[C@H](OC(C)=O)[C@@]3(C)Oc4cc(-c5cccnc5)oc(=O)c4[C@H](O)C23)[C@]1(C)COCC(C)C` (stereo partly specified) yielded an IC50 in assay [1] of 5.9 µM.
Still for that read-out and setting: to `CCCO[C@H]1CC[C@@]2(C)C(C[C@H](OC(C)=O)[C@@]3(C)Oc4cc(-c5cccnc5)oc(=O)c4[C@H](O)C23)[C@]1(C)COC(C)=O` (stereo partly specified) belongs 0.14 µM.
In the assay on Cricetinae gen. sp., `CC(=O)O[C@H]1CC[C@@]2(C)C(C[C@H](OC(C)=O)[C@@]3(C)Oc4cc(-c5cccnc5)oc(=O)c4[C@H](O)C23)C1(C)COS(C)(=O)=O` (single isomer, unassigned) gave an ED50 of 10 mg/kg. The same compound had an IC50 in assay [1] of 0.019 µM.
In assay [1], `CCCC(N)C(=O)O[C@H]1c2c(cc(-c3cccnc3)oc2=O)O[C@@]2(C)C1[C@@]1(C)CC[C@H](OC(C)=O)[C@@](C)(COC(C)=O)C1C[C@@H]2OC(C)=O` (stereo partly specified) showed an IC50 of 16 µM. This counts as double-digit micromolar.
On the same count and under the same terms, with `CC(=O)OC[C@@]1(C)C2C[C@H](OCC(C)C)[C@@]3(C)Oc4cc(-c5cccnc5)oc(=O)c4[C@H](O)C3[C@@]2(C)CC[C@@H]1OC(C)=O` (stereo partly specified) the figure was 0.13 µM.
On the same count and under the same terms, to `CCCC(N)C(=O)O[C@H]1CC2[C@](C)(CC[C@@H]3OC(C)(C)OC[C@@]23C)C2[C@@H](O)c3c(cc(-c4cccnc4)oc3=O)O[C@@]21C` (stereo partly specified) belongs 0.086 µM; to `CCCC(N)C(=O)O[C@H]1CC2[C@](C)(CC[C@@H]3OC(c4ccccc4)OC[C@@]23C)C2[C@@H](O)c3c(cc(-c4cccnc4)oc3=O)O[C@@]21C` (stereo partly specified), 0.006 µM; to `CCCCO[C@H]1c2c(cc(-c3cccnc3)oc2=O)O[C@@]2(C)C1[C@@]1(C)CC[C@H](OC(C)=O)[C@@](C)(COC(C)=O)C1C[C@@H]2OC(C)=O` (stereo partly specified), 2.4 µM.
Still for that read-out and setting: with `CC(=O)O[C@H]1CC[C@@]2(C)C(C[C@H](OC(C)=O)[C@@]3(C)Oc4cc(-c5cccnc5)oc(=O)c4[C@H](O)C23)C1(C)COS(=O)(=O)c1ccccc1` (single isomer, unassigned) the figure was 110 µM; with `CC(=O)OCC1(C)C2C[C@H](OC(C)=O)[C@@]3(C)Oc4cc(-c5ccc[n+](C)c5)oc(=O)c4[C@H](O)C3[C@@]2(C)CC[C@@H]1OC(C)=O` (single isomer, unassigned), 2.1 µM.
Turning to `CC(=O)O[C@H]1CC2C(C)(CO)[C@@H](O)CC[C@]2(C)C2[C@@H](O)c3c(cc(-c4cccnc4)oc3=O)O[C@@]21C` (single isomer, unassigned), the half-maximal inhibitory concentration (IC50) in assay [1] was 100 µM.
On the same count and under the same terms, with `CC(=O)OCC1(C)C2C[C@H](OS(=O)(=O)c3ccccc3)[C@@]3(C)Oc4cc(-c5cccnc5)oc(=O)c4[C@H](O)C3[C@@]2(C)CC[C@@H]1OC(C)=O` (single isomer, unassigned) the figure was 3.1 µM.
`CCCC(N)C(=O)O[C@H]1CC2[C@](C)(CC[C@H](OC(C)=O)[C@@]2(C)COC(C)=O)C2[C@@H](O)c3c(cc(-c4cccnc4)oc3=O)O[C@@]21C` (stereo partly specified) came in with an IC50 in assay [1] of 0.013 µM.
The same measure, in the same setting: to `CCCCO[C@H]1CC2[C@](C)(CC[C@H](OC(C)=O)[C@@]2(C)COC(C)=O)C2[C@@H](O)c3c(cc(-c4cccnc4)oc3=O)O[C@@]21C` (stereo partly specified) belongs 0.038 µM; to `CCCC(N)C(=O)O[C@H]1CC2[C@](C)(CC[C@H](O)[C@@]2(C)CO)C2[C@@H](O)c3c(cc(-c4cccnc4)oc3=O)O[C@@]21C` (stereo partly specified), 79 µM; to `CCCO[C@H]1c2c(cc(-c3cccnc3)oc2=O)O[C@@]2(C)C1[C@@]1(C)CC[C@H](OC(C)=O)[C@@](C)(COC(C)=O)C1C[C@@H]2OC(C)=O` (stereo partly specified), 23 µM.
Consider `CC(=O)O[C@H]1CC2C3(C)COC(C)(C)O[C@H]3CC[C@]2(C)C2[C@@H](O)c3c(cc(-c4cccnc4)oc3=O)O[C@@]21C` (single isomer, unassigned), for which half-maximal inhibition in assay [1] (IC50) was put at 1.2 µM.
On to `CC12COC(c3ccccc3)O[C@H]1CC[C@@]1(C)C2C[C@H](O)[C@@]2(C)Oc3cc(-c4cccnc4)oc(=O)c3[C@H](O)C12` (single isomer, unassigned), for which the IC50 in assay [1] is > 180 µM.
Still for that read-out and setting: to `CC1(C)OCC2(C)C3C[C@H](O)[C@@]4(C)Oc5cc(-c6cccnc6)oc(=O)c5[C@H](O)C4[C@@]3(C)CC[C@@H]2O1` (single isomer, unassigned) belongs > 200 µM; to `CCCO[C@H]1CC2[C@](C)(CC[C@H](OC(C)=O)[C@@]2(C)COC(C)=O)C2[C@@H](O)c3c(cc(-c4cccnc4)oc3=O)O[C@@]21C` (stereo partly specified), 0.067 µM; to `CCCC(N)C(=O)O[C@H]1CC2[C@](C)(CC[C@@H]3OC(C)OC[C@@]23C)C2[C@@H](O)c3c(cc(-c4cccnc4)oc3=O)O[C@@]21C` (stereo partly specified), 0.025 µM.
Still for that read-out and setting: with `CC(=O)OCC1(C)C2C[C@H](OCc3ccccc3)[C@@]3(C)Oc4cc(-c5cccnc5)oc(=O)c4[C@H](O)C3[C@@]2(C)CC[C@@H]1OC(C)=O` (single isomer, unassigned) the figure was 7.4 µM; with `CCCC(N)C(=O)O[C@H]1CC2[C@](C)(CC[C@@H]3OC(=O)OC[C@@]23C)C2[C@@H](O)c3c(cc(-c4cccnc4)oc3=O)O[C@@]21C` (stereo partly specified), 2.5 µM; with `CCCC(N)C(=O)O[C@H]1CC2[C@](C)(CC[C@@H]3OC(C)(c4ccccc4)OC[C@@]23C)C2[C@@H](O)c3c(cc(-c4cccnc4)oc3=O)O[C@@]21C` (stereo partly specified), 0.91 µM.
For `CC(=O)OC[C@@]1(C)C2C[C@H](OC(C)=O)[C@@]3(C)Oc4cc(-c5cccnc5)oc(=O)c4[C@H](O)C3[C@@]2(C)CC[C@@H]1OCC(C)C` (stereo partly specified), inhibition in assay [1] was half-maximal at 0.13 µM (IC50). Compared with the last compound, the IC50 is about 7-fold lower.
For the compound `CC1(CO)C2C[C@H](O)[C@@]3(C)Oc4cc(-c5cccnc5)oc(=O)c4[C@H](O)C3[C@@]2(C)CC[C@@H]1O` (single isomer, unassigned), the IC50 in assay [1] was > 220 µM.
Compound `CC(=O)O[C@H]1CC2C3(C)COC(c4ccccc4)O[C@H]3CC[C@]2(C)C2[C@@H](O)c3c(cc(-c4cccnc4)oc3=O)O[C@@]21C` (single isomer, unassigned) returned an IC50 in assay [1] of 0.12 µM.
As for `CC(=O)OC[C@@]1(C)C2C[C@H](OC(C)=O)[C@@]3(C)Oc4cc(-c5ccc[n+]([O-])c5)oc(=O)c4[C@H](O)C3[C@@]2(C)CC[C@@H]1OC(C)=O` (stereo partly specified), the IC50 in assay [1] came to 5.8 µM.
On to `CCCCOC[C@@]1(C)C2C[C@H](OC(C)=O)[C@@]3(C)Oc4cc(-c5cccnc5)oc(=O)c4[C@H](O)C3[C@@]2(C)CC[C@@H]1OC(C)=O` (stereo partly specified), for which the IC50 in assay [1] came out at 4.2 µM.
On the same count and under the same terms, to `CC(=O)OCC1(C)C2C[C@H](OC(C)=O)[C@@]3(C)Oc4cc(-c5cccnc5)oc(=O)c4[C@H](OC(C)=O)C3[C@@]2(C)CC[C@@H]1OC(C)=O` (single isomer, unassigned) belongs 5.1 µM; to `CCCC(N)C(=O)O[C@H]1CC[C@@]2(C)C(C[C@H](OC(C)=O)[C@@]3(C)Oc4cc(-c5cccnc5)oc(=O)c4[C@H](O)C23)[C@]1(C)COC(C)=O` (stereo partly specified), 0.62 µM.
The same measure, in the same setting: with `CC(=O)OC[C@@]1(C)C2C[C@H](OC(C)=O)[C@@]3(C)Oc4cc(-c5cccnc5)oc(=O)c4C=C3[C@@]2(C)CC[C@@H]1OC(C)=O` (stereo partly specified) the figure was 5.8 µM.
Turning to `CCCCO[C@H]1CC[C@@]2(C)C(C[C@H](OC(C)=O)[C@@]3(C)Oc4cc(-c5cccnc5)oc(=O)c4[C@H](O)C23)[C@]1(C)COC(C)=O` (stereo partly specified), inhibition in assay [1] was half-maximal at 0.2 µM (IC50).
Consider `CCCOC[C@@]1(C)C2C[C@H](OC(C)=O)[C@@]3(C)Oc4cc(-c5cccnc5)oc(=O)c4[C@H](O)C3[C@@]2(C)CC[C@@H]1OC(C)=O` (stereo partly specified), for which half-maximal inhibition in assay [1] (IC50) required 0.27 µM. The IC50 values of the last two compounds are within 1.5-fold of each other.
In turn, `CCCC(N)C(=O)O[C@H]1CC2[C@](C)(CC[C@@H]3OC(CC)OC[C@@]23C)C2[C@@H](O)c3c(cc(-c4cccnc4)oc3=O)O[C@@]21C` (stereo partly specified) showed an IC50 in assay [1] of 0.033 µM. This IC50 is about 8.2-fold lower than that of the compound before.
`CCCC(N)C(=O)O[C@H]1CC2[C@](C)(CC[C@@H]3OC4(CCCCC4)OC[C@@]23C)C2[C@@H](O)c3c(cc(-c4cccnc4)oc3=O)O[C@@]21C` (stereo partly specified): in assay [1], inhibition was half-maximal at 0.039 µM (IC50). This IC50 and that of the compound before are within 1.5-fold of each other.
`CO[C@H]1c2c(cc(-c3cccnc3)oc2=O)O[C@@]2(C)C1[C@@]1(C)CC[C@H](OC(C)=O)C(C)(COC(C)=O)C1C[C@@H]2OC(C)=O` (single isomer, unassigned) yielded an IC50 in assay [1] of 38 µM.
For `CCCC(N)C(=O)OC[C@@]1(C)C2C[C@H](OC(C)=O)[C@@]3(C)Oc4cc(-c5cccnc5)oc(=O)c4[C@H](O)C3[C@@]2(C)CC[C@@H]1OC(C)=O` (stereo partly specified), the IC50 in assay [1] is > 8 µM.
Regarding `CC(=O)OCC1(C)C2C[C@H](OC(C)=O)[C@@]3(C)Oc4cc(-c5cccnc5)oc(=O)c4C(=O)C3[C@@]2(C)CC[C@@H]1OC(C)=O` (single isomer, unassigned), the IC50 in assay [1] came to 2.1 µM.
The same measure, in the same setting: with `CC(=O)OCC1(C)C2C[C@H](OS(C)(=O)=O)[C@@]3(C)Oc4cc(-c5cccnc5)oc(=O)c4[C@H](O)C3[C@@]2(C)CC[C@@H]1OC(C)=O` (single isomer, unassigned) the figure was 1.8 µM.

As usually defined, the IC50 is the concentration that inhibits the measured activity by half. High values mean lower potency, low ones higher potency. By ED50 is commonly meant the dose that gives a 50% effect, or the effect in half of the subjects. A lower ED50 goes with greater potency.
